Like-named read-outs stand apart in the source and are kept apart here.
What was measured:
in vitro = format: cell-based; conditions: human, HepG2 or HepG2.117 cells, ATPlite, mean value
In short: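 Luminescent ATP quantitation served as the viability endpoint following a 3- or 4-day incubation with test compounds.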

[1] = system: HBV (HepG2.117 cell line, inducibly HBV producing); assay: Anti-HBV activity: intracellular HBV DNA by real-time PCR in HepG2.117 cells after 3 days of treatment; format: cell-based, hepatitis B virus
In short: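 Read-out is intracellular HBV DNA, measured by real-time PCR using HBV-specific primers and probe. Cells were stable, inducible HBV-producing HepG2.117 (Tet-off). Serially diluted compound was applied for 3 days after replication was induced.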

[2] = 3-days incubation (not marked with *)
[3] = Hepatitis B virus, HepG2.117, 72 h, HepG2.117 cells, intracellular HBV DNA by real-time PCR, 3 days of treatment, mean value; read-out: EC50 (μM, mean value)
[4] = 3-days incubation (unmarked values)
[5] = Hepatitis B virus, HepG2.117, 72 h, HepG2.117 cells, 3 days of treatment, intracellular HBV DNA by real-time PCR; mean value; read-out: EC50 (μM, mean value)

SMILES: CNC(=O)c1ccc(-n2c(N3C[C@@H](C#N)[C@H](c4ccccc4)C3)nc3c(c2=O)C[C@@H](C)N(C(=O)c2ccc(Cl)c(Cl)c2)C3)cc1 [Compound C487]
- CC50 at 3 days (in vitro; [2]): > 50 µM
- EC50 [1, 3]: 0.25 µM

SMILES: CNC(=O)[C@H]1CC[C@H](n2c(NC(C)C)nc3c(c2=O)C[C@@H](C)N(C(=O)c2ccc(Cl)c(Cl)c2)C3)CC1 [Compound C255, trans-4-[(6R)-7-(3,4-dichlorobenzoyl)-6-methyl-4-oxo-2-[(propan-2-yl)amino]-5,6,7,8-tetrahydropyrido[3,4-d]pyrimidin-3(4H)-yl]-N-methylcyclohexane-1-carboxamide]
- CC50 at 3 days (in vitro; [4]): > 50 µM
- EC50 [1, 5]: 0.09 µM

SMILES: CC(C)Nc1nc2c(c(=O)[nH]1)CCN(C(=O)c1ccc(Cl)c(Cl)c1)C2 [Compound C42, 7-(3,4-dichlorobenzoyl)-2-[(propan-2-yl)amino]-5,6,7,8-tetrahydropyrido[3,4-d]pyrimidin-4(3H)-one]
- CC50 at 3 days (in vitro; [4]): > 50 µM
- EC50 [1, 5]: 2.79 µM

SMILES: COc1ccc(CNc2nc3c(c(=O)[nH]2)CCN(C(=O)c2ccc(Cl)c(Cl)c2)C3)cc1 [Compound C34, 7-(3,4-dichlorobenzoyl)-2-{[(4-methoxyphenyl)methyl]amino}-5,6,7,8-tetrahydropyrido[3,4-d]pyrimidin-4(3H)-one]
- CC50 at 3 days (in vitro; [4]): 26.6 µM
- EC50 [1, 5]: 4.03 µM

SMILES: CNC(=O)c1ccc(-n2c(N[C@H]3CCC34CCC4)nc3c(c2=O)C[C@@H](C)N(C(=O)c2ccc(Cl)c(Cl)c2)C3)cc1 (single isomer, unassigned) [Compound C346b]
- CC50 at 3 days (in vitro; [2]): > 50 µM
- EC50 [1, 3]: 0.22 µM

SMILES: CNC(=O)c1ccc(-n2c(N[C@H](C)c3cnnn3C)nc3c(c2=O)C[C@@H](C)N(C(=O)c2ccc(Cl)c(Cl)c2)C3)cc1 [Compound C517]
- CC50 at 3 days (in vitro; [2]): > 50 µM
- EC50 [1, 3]: > 25 µM

SMILES: COc1ccc(CNc2nc3c(c(=O)n2-c2ccc(-n4cccn4)cc2)CCN(C(=O)c2ccc(Cl)c(Cl)c2)C3)cc1 [Compound C143, 7-(3,4-dichlorobenzoyl)-2-{[(4-methoxyphenyl)methyl]amino}-3-[4-(1H-pyrazol-1-yl)phenyl]-5,6,7,8-tetrahydropyrido[3,4-d]pyrimidin-4(3H)-one]
- CC50 at 3 days (in vitro; [4]): > 50 µM
- EC50 [1, 5]: 1.46 µM

SMILES: CNC(=O)c1ccc(-n2c(N3CC[C@@H]3C)nc3c(c2=O)C[C@@H](C)N(C(=O)c2ccc(Cl)c(Cl)c2)C3)cc1 (single isomer, unassigned) [Compound C312, 4-[(6R)-7-(3,4-dichlorobenzoyl)-6-methyl-2-[(2*S)-2-methylazetidin-1-yl]-4-oxo-5,6,7,8-tetrahydropyrido[3,4-d]pyrimidin-3(4H)-yl]-N-methylbenzamide]
- CC50 at 3 days (in vitro; [4]): > 50 µM
- EC50 [1, 5]: 0.26 µM

SMILES: COc1ccc(CNc2nc3c(c(=O)[nH]2)CC(C)N(C(=O)c2ccc(Cl)c(Cl)c2)C3)cc1 (centres unmarked) [Compound C63, 7-(3,4-dichlorobenzoyl)-2-{[(4-methoxyphenyl)methyl]amino}-6-methyl-5,6,7,8-tetrahydropyrido[3,4-d]pyrimidin-4(3H)-one]
- CC50 at 3 days (in vitro; [4]): 28.4 µM
- EC50 [1, 5]: 2.59 µM

SMILES: CNC(=O)c1ccc(-n2c(N[C@@H](CC3CC3)c3ccccc3)nc3c(c2=O)C[C@@H](C)N(C(=O)c2ccc(Cl)c(Cl)c2)C3)cc1 (single isomer, unassigned) [Compound C437b]
- CC50 at 3 days (in vitro; [2]): 29.4 µM
- EC50 [1, 3]: 0.91 µM

SMILES: COc1ccccc1-n1c(NCc2ccc(F)cc2F)nc2c(c1=O)CCN(C(=O)c1ccc(Cl)c(Cl)c1)C2 [Compound C29, 7-(3,4-dichlorobenzoyl)-2-{[(2,4-difluorophenyl)methyl]amino}-3-(2-methoxyphenyl)-5,6,7,8-tetrahydropyrido[3,4-d]pyrimidin-4(3H)-one]
- CC50 at 3 days (in vitro; [4]): 23.3 µM
- EC50 [1, 5]: 7.43 µM

SMILES: CC(C)Nc1nc2c(c(=O)n1-c1ccc(C(=O)NCCN)cc1)C[C@@H](C)N(C(=O)c1ccc(Cl)c(Cl)c1)C2 [Compound C197, N-(2-aminoethyl)-4-[(6R)-7-(3,4-dichlorobenzoyl)-6-methyl-4-oxo-2-[(propan-2-yl)amino]-5,6,7,8-tetrahydropyrido[3,4-d]pyrimidin-3(4H)-yl]benzamide]
- CC50 at 3 days (in vitro; [4]): > 50 µM
- EC50 [1, 5]: 1.81 µM

SMILES: CNC(=O)c1ccc(-n2c(NC(C)C)nc3c(c2=O)C[C@@H](C)N(C(=O)c2ccc(Cl)c(Cl)c2)C3)c(Cl)c1 [Compound C293, 3-chloro-4-[(6R)-7-(3,4-dichlorobenzoyl)-6-methyl-4-oxo-2-[(propan-2-yl)amino]-5,6,7,8-tetrahydropyrido[3,4-d]pyrimidin-3(4H)-yl]-N-methylbenzamide]
- CC50 at 3 days (in vitro; [4]): 34.9 µM
- EC50 [1, 5]: 0.06 µM

SMILES: CCOC(=O)c1ccc(-n2c(NCc3ccc(OC)cc3)nc3c(c2=O)CCN(C(=O)c2ccc(Cl)c(Cl)c2)C3)cc1 [Compound C121, ethyl 4-[7-(3,4-dichlorobenzoyl)-2-{[(4-methoxyphenyl)methyl]amino}-4-oxo-5,6,7,8-tetrahydropyrido[3,4-d]pyrimidin-3(4H)-yl]benzoate]
- CC50 at 3 days (in vitro; [4]): > 50 µM
- EC50 [1, 5]: 1.55 µM

SMILES: CC(C)Nc1nc2c(c(=O)n1-c1ccc(-c3nn[nH]n3)cc1)C[C@@H](C)N(C(=O)c1ccc(Cl)c(Cl)c1)C2 [Compound C453]
- CC50 at 3 days (in vitro; [2]): > 50 µM
- EC50 [1, 3]: 5.81 µM

SMILES: COC(=O)C12CC(n3c(NC(C)C)nc4c(c3=O)C[C@@H](C)N(C(=O)c3ccc(Cl)c(Cl)c3)C4)(C1)C2 [Compound C236]
- CC50 at 3 days (in vitro; [4]): > 50 µM
- EC50 [1, 5]: > 50 µM

SMILES: C[C@@H]1Cc2c(nc(NC3(c4ccncc4)CC3)n(-c3ccc(S(C)(=O)=O)cc3)c2=O)CN1C(=O)c1ccc(Cl)c(Cl)c1 [Compound C198, (6R)-7-(3,4-dichlorobenzoyl)-3-[4-(methanesulfonyl)phenyl]-6-methyl-2-{[1-(pyridin-4-yl)cyclopropyl]amino}-5,6,7,8-tetrahydropyrido[3,4-d]pyrimidin-4(3H)-one]
- CC50 at 3 days (in vitro; [4]): > 50 µM
- EC50 [1, 5]: 3.25 µM

SMILES: CNC(=O)c1ccc(-n2c(N[C@@H](C)c3ccccc3)nc3c(c2=O)C[C@@H](C)N(C(=O)c2ccc(Cl)c(Cl)c2)C3)c(Cl)c1 (single isomer, unassigned) [Compound C386a]
- CC50 at 3 days (in vitro; [2]): > 50 µM
- EC50 [1, 3]: 0.08 µM

SMILES: CC(C)Nc1nc2c(c(=O)n1-c1ccc(-c3ccns3)cc1)C[C@@H](C)N(C(=O)c1ccc(Cl)c(Cl)c1)C2 [Compound C212, (6R)-7-(3,4-dichlorobenzoyl)-6-methyl-2-[(propan-2-yl)amino]-3-[4-(1,2-thiazol-5-yl)phenyl]-5,6,7,8-tetrahydropyrido[3,4-d]pyrimidin-4(3H)-one]
- CC50 at 3 days (in vitro; [4]): > 50 µM
- EC50 [1, 5]: 0.26 µM

SMILES: CC(C)Nc1nc2c(c(=O)n1-c1ccnnc1)CCN(C(=O)c1ccc(Cl)c(Cl)c1)C2 [Compound C134, 7-(3,4-dichlorobenzoyl)-2-[(propan-2-yl)amino]-3-(pyridazin-4-yl)-5,6,7,8-tetrahydropyrido[3,4-d]pyrimidin-4(3H)-one]
- CC50 at 3 days (in vitro; [4]): > 50 µM
- EC50 [1, 5]: 4.39 µM

SMILES: CNC(=O)c1ccc(-n2c(N[C@@H](C)c3ccc(F)cc3)nc3c(c2=O)C[C@@H](C)N(C(=O)c2ccc(Cl)c(C(F)(F)F)c2)C3)cc1 [Compound C651]
- CC50 at 3 days (in vitro; [2]): 8.8 µM
- EC50 [1, 3]: 0.05 µM

SMILES: CNC(=O)c1ccc(-n2c(N[C@H](C)c3ccc4c(ccn4C)c3)nc3c(c2=O)C[C@@H](C)N(C(=O)c2ccc(Cl)c(Cl)c2)C3)cc1 (single isomer, unassigned) [Compound C450a]
- CC50 at 3 days (in vitro; [2]): > 50 µM
- EC50 [1, 3]: 0.02 µM

SMILES: Cc1cc(C(=O)N2CCc3c(nc(NC(C)C)n(-c4ccc(S(C)(=O)=O)cc4)c3=O)C2)ccc1Cl [Compound C221, 7-(4-chloro-3-methylbenzoyl)-3-[4-(methanesulfonyl)phenyl]-2-[(propan-2-yl)amino]-5,6,7,8-tetrahydropyrido[3,4-d]pyrimidin-4(3H)-one]
- CC50 at 3 days (in vitro; [4]): > 50 µM
- EC50 [1, 5]: 1.58 µM

SMILES: CC(C)Nc1nc2c(c(=O)n1-c1ccc(-c3cnccn3)cc1)CCN(C(=O)c1ccc(Cl)c(Cl)c1)C2 [Compound C176, 7-(3,4-dichlorobenzoyl)-2-[(propan-2-yl)amino]-3-[4-(pyrazin-2-yl)phenyl]-5,6,7,8-tetrahydropyrido[3,4-d]pyrimidin-4(3H)-one]
- CC50 at 3 days (in vitro; [4]): 8.7 µM
- EC50 [1, 5]: 0.57 µM

SMILES: CNC(=O)c1ccc(-n2c(NC3(C)CC3)nc3c(c2=O)C[C@@H](C)N(C(=O)c2ccc(Cl)c(Cl)c2)C3)cc1 [Compound C297, 4-[(6R)-7-(3,4-dichlorobenzoyl)-6-methyl-2-[(1-methylcyclopropyl)amino]-4-oxo-5,6,7,8-tetrahydropyrido[3,4-d]pyrimidin-3(4H)-yl]-N-methylbenzamide]
- CC50 at 3 days (in vitro; [4]): > 50 µM
- EC50 [1, 5]: 0.05 µM

SMILES: CC(C)Nc1nc2c(c(=O)n1-c1ccc(C(=O)N3CCOCC3)cc1)C[C@@H](C)N(C(=O)c1ccc(Cl)c(Cl)c1)C2 [Compound C168, (6R)-7-(3,4-dichlorobenzoyl)-6-methyl-3-[4-(morpholine-4-carbonyl)phenyl]-2-[(propan-2-yl)amino]-5,6,7,8-tetrahydropyrido[3,4-d]pyrimidin-4(3H)-one]
- CC50 at 3 days (in vitro; [4]): > 50 µM
- EC50 [1, 5]: 0.24 µM

SMILES: CNC(=O)c1ccc([C@H](C)Nc2nc3c(c(=O)n2-c2ccc(C(=O)NC)cc2)C[C@@H](C)N(C(=O)c2ccc(Cl)c(Cl)c2)C3)cc1 (single isomer, unassigned) [Compound C530b]
- CC50 at 3 days (in vitro; [2]): > 50 µM
- EC50 [1, 3]: > 10 µM

SMILES: CC(C)Nc1nc2c(c(=O)n1-c1ccc(S(C)(=O)=O)cc1)CCN(C(=O)c1nc3ccccc3[nH]1)C2 [Compound C358]
- CC50 at 3 days (in vitro; [4]): > 50 µM
- EC50 [1, 5]: > 50 µM
